Like-named read-outs stand apart in the source and are kept apart here.
Legend:
[1] = biological target: wild-type un-phosphorylated FGFR2 (Homo sapiens, UniProt P21802); experiment: FGFR Enzymatic Assay (FRET peptide phosphorylation), FGFR2
[2] = biological target: wild-type un-phosphorylated FGFR4 (Homo sapiens, UniProt P22455); experiment: FGFR Enzymatic Assay (FRET peptide phosphorylation), FGFR4
Procedure: (§1) The inhibitor potency of the exemplified compounds was determined in an enzyme discontinuous assay that measures peptide phosphorylation using FRET measurements to detect product formation. Inhibitors were serially diluted in DMSO and a volume of 0.2 μL was transferred to the wells of a 384-well plate. […] Appropriate controls (enzyme blank and enzyme with no inhibitor) were included on the plate. […] The 10 μL/well reaction concentration of the peptide substrate was 500 nM whereas the ATP concentration was maintained near or below the ATP Km. The ATP Km values were pre-determined in a separate series of experiments. The reaction plate was incubated at 25° C. for 1 hr and the reactions were ended with the addition of 5 μL/well of quench solution (50 mM Tris, 150 mM NaCl, 0.5 mg/mL BSA, pH 7.8; 45 mM EDTA, 600 nM staurosporin, with Perkin Elmer Lance Reagents at 3.75 nM Eu-antibody PY20 and 180 nM APC-Streptavidin). The plate was allowed to equilibrate for ˜10 minutes at ambient temperature before scanning on a PheraStar plate reader (BMG Labtech) instrument.
(§2) Either GraphPad prism or XLfit was used to analyze the data. The IC50 values were derived by fitting the data to a four parameter logistic equation producing a sigmoidal dose-response curve with a variable Hill coefficient. Prism equation: Y=Bottom+(Top-Bottom)/(1+10^((Log IC50-X)*Hill slope)); XLfit equation: Y=(A+((B−A)/(1+((X/C)^D)))) where X is the logarithm of inhibitor concentration and Y is the response.
(§3) GraphPad prism3 was used to analyze the data. The IC50 values were derived by fitting the data to the equation for a sigmoidal dose-response with a variable slope. Y=Bottom+(Top-Bottom)/(1+10^((Log IC50-X)*Hill Slope)) where X is the logarithm of concentration and Y is the response.
(§4) The data in Table 1 was measured in wild-type un-phosphorylated FGFR1, FGFR2, FGFR3, and FGFR4 proteins.

[3] = biological target: wild-type un-phosphorylated FGFR3 (Homo sapiens, UniProt P22607); experiment: FGFR Enzymatic Assay (FRET peptide phosphorylation), FGFR3
wild-type un-phosphorylated FGFR3, sequence (P22607 23-806): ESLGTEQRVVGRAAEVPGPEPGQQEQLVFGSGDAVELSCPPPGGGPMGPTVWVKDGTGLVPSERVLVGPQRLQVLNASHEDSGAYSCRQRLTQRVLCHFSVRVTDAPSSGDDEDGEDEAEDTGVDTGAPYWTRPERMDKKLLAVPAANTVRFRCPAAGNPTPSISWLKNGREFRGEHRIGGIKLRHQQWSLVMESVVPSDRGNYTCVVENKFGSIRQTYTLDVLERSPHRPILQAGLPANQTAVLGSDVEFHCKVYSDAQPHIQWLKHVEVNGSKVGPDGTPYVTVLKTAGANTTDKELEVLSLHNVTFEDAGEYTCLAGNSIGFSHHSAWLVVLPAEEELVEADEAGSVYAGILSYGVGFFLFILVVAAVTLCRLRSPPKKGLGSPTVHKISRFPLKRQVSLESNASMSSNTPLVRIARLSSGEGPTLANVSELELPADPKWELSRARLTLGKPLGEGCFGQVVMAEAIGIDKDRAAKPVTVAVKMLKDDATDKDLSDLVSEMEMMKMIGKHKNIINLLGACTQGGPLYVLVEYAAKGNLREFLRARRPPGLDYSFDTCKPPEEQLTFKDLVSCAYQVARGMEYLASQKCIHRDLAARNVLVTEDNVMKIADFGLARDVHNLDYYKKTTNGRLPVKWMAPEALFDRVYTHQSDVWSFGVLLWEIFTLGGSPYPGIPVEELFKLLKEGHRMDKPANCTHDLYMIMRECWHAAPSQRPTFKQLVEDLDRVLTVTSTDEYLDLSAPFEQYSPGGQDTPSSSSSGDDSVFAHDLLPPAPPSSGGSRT

[4] = biological target: wild-type un-phosphorylated FGFR1 (Homo sapiens, UniProt P11362); experiment: FGFR Enzymatic Assay (FRET peptide phosphorylation), FGFR1; details: pre-incubated for 4 hours
wild-type un-phosphorylated FGFR1, sequence (P11362 22-822): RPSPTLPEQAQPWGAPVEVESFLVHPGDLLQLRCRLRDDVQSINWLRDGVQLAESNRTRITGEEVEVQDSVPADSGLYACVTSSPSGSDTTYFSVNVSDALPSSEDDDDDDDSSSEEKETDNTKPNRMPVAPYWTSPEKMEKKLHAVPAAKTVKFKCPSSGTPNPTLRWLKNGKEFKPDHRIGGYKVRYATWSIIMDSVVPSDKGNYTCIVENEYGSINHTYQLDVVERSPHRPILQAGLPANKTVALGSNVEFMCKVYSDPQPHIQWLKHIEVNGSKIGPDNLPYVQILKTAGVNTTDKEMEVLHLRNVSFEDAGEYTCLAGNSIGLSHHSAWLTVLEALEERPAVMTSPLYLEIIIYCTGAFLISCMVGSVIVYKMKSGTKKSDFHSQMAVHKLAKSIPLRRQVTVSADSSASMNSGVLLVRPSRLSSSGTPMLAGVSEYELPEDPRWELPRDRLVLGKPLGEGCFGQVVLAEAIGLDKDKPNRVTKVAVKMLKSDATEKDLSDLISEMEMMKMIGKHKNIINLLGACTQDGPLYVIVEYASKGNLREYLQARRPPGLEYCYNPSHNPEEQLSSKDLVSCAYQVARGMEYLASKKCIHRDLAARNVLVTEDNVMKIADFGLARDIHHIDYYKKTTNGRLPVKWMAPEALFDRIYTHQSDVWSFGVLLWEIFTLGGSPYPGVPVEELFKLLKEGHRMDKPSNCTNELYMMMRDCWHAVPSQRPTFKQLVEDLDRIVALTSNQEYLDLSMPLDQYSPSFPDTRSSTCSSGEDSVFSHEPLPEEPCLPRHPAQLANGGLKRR
Procedure: as §1, §2, §3, §4

[5] = read-out: FGFR4, wild-type un-phosphorylated FGFR4, pre-incubated for 4 hours
[6] = read-out: FGFR1, wild-type un-phosphorylated FGFR1
[7] = read-out: FGFR2, wild-type un-phosphorylated FGFR2, pre-incubated for 4 hours
[8] = FGFR1, wild-type un-phosphorylated FGFR1

wild-type un-phosphorylated FGFR4, sequence (P22455 22-802): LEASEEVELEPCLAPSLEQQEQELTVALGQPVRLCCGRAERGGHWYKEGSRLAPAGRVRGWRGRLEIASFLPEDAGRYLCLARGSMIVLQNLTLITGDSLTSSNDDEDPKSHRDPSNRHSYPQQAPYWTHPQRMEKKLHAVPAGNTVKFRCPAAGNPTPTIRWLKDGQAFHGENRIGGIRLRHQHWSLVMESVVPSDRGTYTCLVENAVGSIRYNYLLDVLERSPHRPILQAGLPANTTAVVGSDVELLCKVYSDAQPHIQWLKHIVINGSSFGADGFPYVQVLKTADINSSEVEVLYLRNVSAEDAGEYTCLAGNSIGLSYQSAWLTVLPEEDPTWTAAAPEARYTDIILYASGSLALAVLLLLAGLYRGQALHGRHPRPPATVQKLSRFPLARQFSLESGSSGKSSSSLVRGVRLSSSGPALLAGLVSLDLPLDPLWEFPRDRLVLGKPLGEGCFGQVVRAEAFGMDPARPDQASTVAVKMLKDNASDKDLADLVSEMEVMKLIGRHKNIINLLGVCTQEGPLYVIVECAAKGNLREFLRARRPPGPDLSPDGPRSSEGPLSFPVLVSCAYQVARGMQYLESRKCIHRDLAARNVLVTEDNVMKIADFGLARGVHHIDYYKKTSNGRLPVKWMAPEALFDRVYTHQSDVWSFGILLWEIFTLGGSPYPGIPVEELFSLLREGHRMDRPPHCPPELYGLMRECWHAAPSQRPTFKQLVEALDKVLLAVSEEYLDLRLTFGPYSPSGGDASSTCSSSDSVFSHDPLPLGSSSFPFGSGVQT
wild-type un-phosphorylated FGFR2, sequence (P21802 22-821): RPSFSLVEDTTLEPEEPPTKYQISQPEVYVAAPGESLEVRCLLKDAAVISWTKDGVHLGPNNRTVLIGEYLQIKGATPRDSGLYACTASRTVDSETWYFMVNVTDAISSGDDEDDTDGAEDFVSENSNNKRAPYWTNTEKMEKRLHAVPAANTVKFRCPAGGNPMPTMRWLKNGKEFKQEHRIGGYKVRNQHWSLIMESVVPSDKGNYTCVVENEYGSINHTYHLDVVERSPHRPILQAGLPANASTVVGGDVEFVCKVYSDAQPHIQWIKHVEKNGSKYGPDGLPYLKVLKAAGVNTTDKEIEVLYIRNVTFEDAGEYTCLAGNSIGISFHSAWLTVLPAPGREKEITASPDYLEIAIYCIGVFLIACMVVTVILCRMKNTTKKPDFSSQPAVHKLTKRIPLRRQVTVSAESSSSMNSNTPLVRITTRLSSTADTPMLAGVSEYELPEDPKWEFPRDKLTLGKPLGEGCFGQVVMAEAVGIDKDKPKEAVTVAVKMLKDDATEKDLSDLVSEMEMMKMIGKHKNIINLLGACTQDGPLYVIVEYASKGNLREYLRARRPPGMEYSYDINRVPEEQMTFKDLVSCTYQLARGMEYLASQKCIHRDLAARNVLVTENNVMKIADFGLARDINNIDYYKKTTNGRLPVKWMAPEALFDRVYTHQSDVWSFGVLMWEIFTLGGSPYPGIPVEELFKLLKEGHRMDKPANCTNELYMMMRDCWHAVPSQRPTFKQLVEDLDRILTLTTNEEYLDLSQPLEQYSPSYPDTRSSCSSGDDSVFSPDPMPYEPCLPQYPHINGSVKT

| IC50 [1] | IC50 [2, 5] | IC50 [3] | IC50 [4, 6] | IC50 [1, 7] | IC50 ([3]; read-out: FGFR3, wild-type un-phosphorylated FGFR3, pre-incubated for 4 hours) | IC50 [2] | IC50 [4, 8] | SMILES |
| --- | --- | --- | --- | --- | --- | --- | --- | --- |
| < 0.006 µM | 0.006 to 0.04 µM | < 0.006 µM | 0.006 to 0.04 µM |  |  |  |  | COc1cc2[nH]nc(-c3cnn([C@H]4CCN(C(=O)[C@@H]5CCN5CCF)C4)c3)c2nc1-c1cccc2c1CCC2 [Example 143, ((S)-3-(4-(5-(2,3-dihydro-1H-inden-4-yl)-6-methoxy-1H-pyrazolo[4,3-b]pyridin-3-yl)-1H-pyrazol-1-yl)pyrrolidin-1-yl)((S)-1-(2-fluoroethyl)azetidin-2-yl)methanone] |
|  | 0.006 to 0.04 µM |  | 0.006 to 0.04 µM | < 0.006 µM | < 0.006 µM |  |  | COc1cc2[nH]nc(-c3ccc(C4CCN(C(C)=O)C4)nc3)c2nc1-c1cccc2c1CCC2 (single isomer, unassigned) [Example 104, 1-(3-(5-(5-(2,3-Dihydro-1H-inden-4-yl)-6-methoxy-1H-pyrazolo[4,3-b]pyridin-3-yl)pyridin-2-yl)pyrrolidin-1-yl)ethan-1-one] |
| < 0.006 µM |  | < 0.006 µM | 0.006 to 0.04 µM |  |  | 0.04 to 0.1 µM |  | COc1cc2[nH]nc(-c3cnn(C4CN(C(=O)C(C)(C)N(C)C)C4)c3)c2nc1-c1cccc2c1CCC2 [Example 148, 1-(3-(4-(5-(2,3-Dihydro-1H-inden-4-yl)-6-methoxy-1H-pyrazolo[4,3-b]pyridin-3-yl)-1H-pyrazol-1-yl)azetidin-1-yl)-2-(dimethylamino)-2-methylpropan-1-one] |
| < 0.006 µM | 0.006 to 0.04 µM | < 0.006 µM | 0.006 to 0.04 µM |  |  |  |  | COc1cc2[nH]nc(-c3cnn([C@H]4CCN(C(=O)[C@H]5C[C@@H](O)C5)C4)c3)c2nc1-c1cccc2c1CCC2 [Example 145, ((S)-3-(4-(5-(2,3-Dihydro-1H-inden-4-yl)-6-methoxy-1H-pyrazolo[4,3-b]pyridin-3-yl)-1H-pyrazol-1-yl)pyrrolidin-1-yl)((cis)-3-hydroxycyclobutyl)methanone] |
| < 0.006 µM | 0.006 to 0.04 µM | < 0.006 µM | 0.006 to 0.04 µM |  |  |  |  | COc1cc2[nH]nc(-c3ccc(C4CCN(C(=O)C5COCCN5C)C4)nc3)c2nc1-c1cccc2c1CCC2 (single isomer, unassigned) [Example 109] |
| < 0.006 µM |  | < 0.006 µM |  |  |  | > 0.1 µM | 0.04 to 0.1 µM | COc1cc2[nH]nc(-c3cnn(C)c3)c2nc1-c1cccc2c1CC(F)C2 (centres unmarked) [Example 84, 5-(2-Fluoro-2,3-dihydro-1H-inden-4-yl)-6-methoxy-3-(1-methyl-1H-pyrazol-4-yl)-1H-pyrazolo[4,3-b]pyridine] |
| < 0.006 µM |  | < 0.006 µM |  |  |  | > 0.1 µM | 0.04 to 0.1 µM | COc1cc2[nH]nc(-c3ccc(C(C)N4CCOCC4)nc3)c2nc1-c1cccc2c1CCC2 (centres unmarked) [Example 162, 4-(1-(5-(5-(2,3-Dihydro-1H-inden-4-yl)-6-methoxy-1H-pyrazolo[4,3-b]pyridin-3-yl)pyridin-2-yl)ethyl)morpholine] |
| < 0.006 µM |  | < 0.006 µM |  |  |  | 0.04 to 0.1 µM | 0.04 to 0.1 µM | COC(=O)N1CC(n2cc(-c3n[nH]c4cc(OC)c(-c5cccc6c5CCC6)nc34)cn2)C1 [Example 21, Methyl 3-(4-(5-(2,3-dihydro-1H-inden-4-yl)-6-methoxy-1H-pyrazolo[4,3-b]pyridin-3-yl)-1H-pyrazol-1-yl)azetidine-1-carboxylate] |
| < 0.006 µM |  | < 0.006 µM |  |  |  | 0.04 to 0.1 µM | 0.04 to 0.1 µM | COc1cc2[nH]nc(-c3cnn(CCO)c3)c2nc1-c1cccc2c1CCC2 [Example 31, 2-(4-(5-(2,3-Dihydro-1H-inden-4-yl)-6-methoxy-1H-pyrazolo[4,3-b]pyridin-3-yl)-1H-pyrazol-1-yl)ethan-1-ol] |
| < 0.006 µM | 0.006 to 0.04 µM | < 0.006 µM | 0.006 to 0.04 µM |  |  |  |  | COc1cc2[nH]nc(-c3ccc(C4CCN(C5CCN(C)C5=O)C4)nc3)c2nc1-c1cccc2c1CCC2 (single isomer, unassigned) [Example 106, 3-(5-(5-(2,3-Dihydro-1H-inden-4-yl)-6-methoxy-1H-pyrazolo[4,3-b]pyridin-3-yl)pyridin-2-yl)-1′-methyl-[1,3′-bipyrrolidin]-2′-one] |
| < 0.006 µM |  | < 0.006 µM | 0.006 to 0.04 µM |  |  | 0.04 to 0.1 µM |  | COc1cc2[nH]nc(-c3ccc(C4CN(C(=O)CO)C4)nc3)c2nc1-c1cccc2c1CCC2 [Example 176, 1-(3-(5-(5-(2,3-Dihydro-1H-inden-4-yl)-6-methoxy-1H-pyrazolo[4,3-b]pyridin-3-yl)pyridin-2-yl)azetidin-1-yl)-2-hydroxyethan-1-one] |
| < 0.006 µM | 0.006 to 0.04 µM | < 0.006 µM | 0.006 to 0.04 µM |  |  |  |  | COc1cc2[nH]nc(-c3cnn([C@H]4CCN(C(=O)CO)C4)c3)c2nc1-c1cccc2c1CCC2 [Example 129, (S)-1-(3-(4-(5-(2,3-Dihydro-1H-inden-4-yl)-6-methoxy-1H-pyrazolo[4,3-b]pyridin-3-yl)-1H-pyrazol-1-yl)pyrrolidin-1-yl)-2-hydroxyethan-1-one] |
| < 0.006 µM |  | < 0.006 µM |  |  |  | 0.04 to 0.1 µM | 0.04 to 0.1 µM | COc1cc2[nH]nc(-c3ccc(CN4C[C@H]5C[C@@H]4CO5)nc3)c2nc1-c1cccc2c1CCC2 [Example 200, (1R,4R)-5-((5-(5-(2,3-Dihydro-1H-inden-4-yl)-6-methoxy-1H-pyrazolo[4,3-b]pyridin-3-yl)pyridin-2-yl)methyl)-2-oxa-5-azabicyclo[2.2.1]heptane] |
| < 0.006 µM | 0.006 to 0.04 µM | < 0.006 µM | 0.006 to 0.04 µM |  |  |  |  | [2H]C1(c2ccc(-c3n[nH]c4cc(OC)c(-c5cccc6c5CCC6)nc34)cn2)CN(C(=O)CO)C1 [Example 179, 1-(3-(5-(5-(2,3-Dihydro-1H-inden-4-yl)-6-methoxy-1H-pyrazolo[4,3-b]pyridin-3-yl)pyridin-2-yl)azetidin-1-yl-3-d)-2-hydroxyethan-1-one] |
| < 0.006 µM |  | < 0.006 µM |  |  |  | > 0.1 µM | 0.04 to 0.1 µM | CNc1cc2[nH]nc(-c3cnn(C)c3)c2nc1-c1cccc(C)c1C [Example 34, 5-(2,3-Dimethylphenyl)-N-methyl-3-(1-methyl-1H-pyrazol-4-yl)-1H-pyrazolo[4,3-b]pyridin-6-amine] |
| < 0.006 µM |  | < 0.006 µM |  |  |  | 0.04 to 0.1 µM | 0.04 to 0.1 µM | COc1cc2[nH]nc(-c3ccc(N4CCN5C[C@@H](O)C[C@@H]5C4)nc3)c2nc1-c1cccc(C)c1C [Example 85, (7S,8aR)-2-(5-(5-(2,3-Dimethylphenyl)-6-methoxy-1H-pyrazolo[4,3-b]pyridin-3-yl)pyridin-2-yl)octahydropyrrolo[1,2-a]pyrazin-7-ol] |
| < 0.006 µM |  | < 0.006 µM |  |  |  | 0.04 to 0.1 µM | 0.04 to 0.1 µM | [2H]C1(n2cc(-c3n[nH]c4cc(OC)c(-c5cccc6c5CCC6C#N)nc34)cn2)CCN(C(=O)C2CCOCC2)CC1 (centres unmarked) [Example 167, 4-(6-Methoxy-3-(1-(1-(tetrahydro-2H-pyran-4-carbonyl)piperidin-4-yl-4-d)-1H-pyrazol-4-yl)-1H-pyrazolo[4,3-b]pyridin-5-yl)-2,3-dihydro-1H-indene-1-carbonitrile] |
|  |  | < 0.006 µM |  | 0.006 to 0.04 µM |  | > 0.1 µM | 0.04 to 0.1 µM | COCCOc1ccc(-c2n[nH]c3cc(OC)c(-c4cccc5c4CC(O)C5)nc23)cn1 (centres unmarked) [Example 95, 4-(6-Methoxy-3-(6-(2-methoxyethoxy)pyridin-3-yl)-1H-pyrazolo[4,3-b]pyridin-5-yl)-2,3-dihydro-1H-inden-2-ol] |
| < 0.006 µM |  | < 0.006 µM |  |  |  | 0.04 to 0.1 µM | 0.04 to 0.1 µM | COCCOC(=O)N1CC(n2cc(-c3n[nH]c4cc(OC)c(-c5cccc6c5CCC6)nc34)cn2)C1 [Example 152, 2-Methoxyethyl 3-(4-(5-(2,3-dihydro-1H-inden-4-yl)-6-methoxy-1H-pyrazolo[4,3-b]pyridin-3-yl)-1H-pyrazol-1-yl)azetidine-1-carboxylate] |
| < 0.006 µM |  | < 0.006 µM |  |  |  | > 0.1 µM | > 0.1 µM | COc1cc2[nH]nc(-c3cnn(C4CN(S(C)(=O)=O)C4)c3)c2nc1-c1cccc2c1CCC2 [Example 23, 5-(2,3-Dihydro-1H-inden-4-yl)-6-methoxy-3-(1-(1-(methylsulfonyl)azetidin-3-yl)-1H-pyrazol-4-yl)-1H-pyrazolo[4,3-b]pyridine] |
| < 0.006 µM |  | < 0.006 µM |  |  |  | > 0.1 µM | > 0.1 µM | COc1cc2[nH]nc(-c3ccc(N4CCCC4)nc3)c2nc1-c1cccc2c1CCC2 [Example 57, 5-(2,3-Dihydro-1H-inden-4-yl)-6-methoxy-3-(6-(pyrrolidin-1-yl)pyridin-3-yl)-1H-pyrazolo[4,3-b]pyridine] |
| < 0.006 µM |  | < 0.006 µM | 0.006 to 0.04 µM |  |  | 0.04 to 0.1 µM |  | COc1cc2[nH]nc(-c3cnn([C@@H]4CCN(C(=O)[C@@H]5COCCN5C)C4)c3)c2nc1-c1cccc2c1CCC2 [Example 137, ((R)-3-(4-(5-(2,3-Dihydro-1H-inden-4-yl)-6-methoxy-1H-pyrazolo[4,3-b]pyridin-3-yl)-1H-pyrazol-1-yl)pyrrolidin-1-yl)((S)-4-methylmorpholin-3-yl)methanone] |
| < 0.006 µM |  | < 0.006 µM |  |  |  | 0.04 to 0.1 µM | 0.04 to 0.1 µM | COc1cc2[nH]nc(-c3ccc(C4CN(C(=O)C5CCCO5)C4)nc3)c2nc1-c1cccc2c1CCC2 (centres unmarked) [Example 172, (3-(5-(5-(2,3-Dihydro-1H-inden-4-yl)-6-methoxy-1H-pyrazolo[4,3-b]pyridin-3-yl)pyridin-2-yl)azetidin-1-yl)(tetrahydrofuran-2-yl)methanone] |
